The assay concerns the target T1, human Werner helicase (WRN-BV08, Uniprot Q14191, amino acids 517-1235 with L1074F point mutation) (Homo sapiens, UniProt Q14191, L1074F).
T1 construct: Uniprot Q14191, amino acids 517-1235 with L1074F point mutation; TEV-cleavable 8×His (C, cleaved yes); made in house; host or cells: Sf9 insect cells (baculovirus)
As to the kind of experiment: WRN (BV08) ADP-Glo Assay. It counts as biochemical. The conditions noted are these: 0.15 nM WRN, 5 μM ATP, 0.1 nM DNA duplex, 15 min preincubation, 60 min at 25° C., pH 7.5, 1% DMSO; read-out: ADP-Glo_hWRN_IC50. The gist of the method: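 WRN 0.15 nM + cpd, 15 min 25 °C; add 5 μM ATP / 0.1 nM annealed DNA duplex; 60 min 25 °C; ADP-Glo stop, RLU. Buffer 20 mM Bicine pH 7.5, 1 mM MgCl2, 10 mM KCl, 1 mM TCEP. IC50, 4-parameter fit.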

Structures are written as SMILES.

T1 sequence (Q14191 with tags, fused parts or gaps L1074F limits assumed): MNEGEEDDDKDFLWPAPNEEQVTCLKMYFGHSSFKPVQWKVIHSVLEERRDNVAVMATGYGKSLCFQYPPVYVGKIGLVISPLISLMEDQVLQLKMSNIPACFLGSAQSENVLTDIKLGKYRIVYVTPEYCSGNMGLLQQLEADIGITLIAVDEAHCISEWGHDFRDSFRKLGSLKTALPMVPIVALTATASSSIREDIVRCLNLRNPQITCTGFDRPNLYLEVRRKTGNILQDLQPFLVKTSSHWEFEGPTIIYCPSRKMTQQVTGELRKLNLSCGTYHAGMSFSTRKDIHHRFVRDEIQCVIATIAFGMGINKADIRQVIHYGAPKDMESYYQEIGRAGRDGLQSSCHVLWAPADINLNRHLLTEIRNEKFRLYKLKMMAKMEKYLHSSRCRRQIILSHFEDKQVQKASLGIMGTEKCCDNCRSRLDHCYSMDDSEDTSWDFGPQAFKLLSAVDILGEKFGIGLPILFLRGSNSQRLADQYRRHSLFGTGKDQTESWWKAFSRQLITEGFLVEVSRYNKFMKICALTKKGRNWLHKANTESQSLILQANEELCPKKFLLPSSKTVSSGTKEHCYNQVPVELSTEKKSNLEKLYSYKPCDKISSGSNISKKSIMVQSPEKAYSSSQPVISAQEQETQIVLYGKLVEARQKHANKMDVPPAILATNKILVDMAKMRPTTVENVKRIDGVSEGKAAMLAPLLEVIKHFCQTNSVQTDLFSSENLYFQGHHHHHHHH

For the compound `O=C1NC(c2ccccc2)CCN1CC(=O)N(Cc1ccncc1)C1C=CS(=O)(=O)C1` (stereo not drawn) [I-819, N-(1,1-dioxo-2,3-dihydro-1lambda6-thiophen-3-yl)-2-(2-oxo-4-phenyl-1,3-diazinan-1-yl)-N-[(pyridin-4-yl)methyl]acetamide], the IC50 lay in the range of 10 to 50 µM. `O=C(Cc1ccc(-n2cccc2)cc1)N(C1C=CS(=O)(=O)C1)C(CO)c1ccccc1` (stereo not drawn) [I-525, N-(1,1-dioxo-2,3-dihydro-1lambda6-thiophen-3-yl)-N-(2-hydroxy-1-phenylethyl)-2-[4-(1H-pyrrol-1-yl)phenyl]acetamide]: the IC50 was above 50 µM.

As for `O=C(C(C1CC1)n1cc(-c2ccccc2)cn1)N(Cc1ccncc1)C1C=CS(=O)(=O)C1` (stereo not drawn) [I-435, 2-cyclopropyl-N-(1,1-dioxo-2,3-dihydro-1lambda6-thiophen-3-yl)-2-(4-phenyl-1H-pyrazol-1-yl)-N-[(pyridin-4-yl)methyl]acetamide], the IC50 is above 50 µM. As to `CC(C)(O)c1cc(CN(C(=O)Cn2cc(-c3ccc(Cl)cc3)cn2)C2C=CS(=O)(=O)C2)ccn1` (stereo not drawn) [I-58, 2-[4-(4-chlorophenyl)-1H-pyrazol-1-yl]-N-(1,1-dioxo-2,3-dihydro-1lambda6-thiophen-3-yl)-N-{[2-(2-hydroxypropan-2-yl)pyridin-4-yl]methyl}acetamide], the IC50 was below 0.5 µM. Next, `O=C(Cc1ccc(S(F)(F)(F)(F)F)cc1)N(CCc1nccs1)C1C=CS(=O)(=O)C1` (stereo not drawn) [I-679, N-(1,1-dioxo-2,3-dihydro-1lambda6-thiophen-3-yl)-2-[4-(pentafluoro-lambda6-sulfanyl)phenyl]-N-[2-(1,3-thiazol-2-yl)ethyl]acetamide]: 0.5 to 5 µM. Next, `COc1cc(CN(C(=O)Cc2ccc(-c3ccc(F)cn3)c(O)c2)C2C=CS(=O)(=O)C2)ccn1` (stereo not drawn) [I-668, N-(1,1-dioxo-2,3-dihydro-1lambda6-thiophen-3-yl)-2-[4-(5-fluoropyridin-2-yl)-3-hydroxyphenyl]-N-[(2-methoxypyridin-4-yl)methyl]acetamide]: 5 to 10 µM. For the compound `O=C(Cc1ccc(N2CCCC2)cc1)N(Cc1ccncc1)C1C=CS(=O)(=O)C1` (stereo not drawn) [I-464, N-(1,1-dioxo-2,3-dihydro-1lambda6-thiophen-3-yl)-N-[(pyridin-4-yl)methyl]-2-[4-(pyrrolidin-1-yl)phenyl]acetamide], the IC50 was above 50 µM. In the case of `CC(C)(O)c1cc(CN(C(=O)C2CCCc3c(-c4cc(F)c(F)c(F)c4)cnn32)[C@@H]2C=CS(=O)(=O)C2)ccn1` (single isomer, unassigned) [I-806], the IC50 fell in the range of 0.5 to 5 µM. Next, `CC(C)(O)c1cc(CN(C(=O)C(F)(F)c2ccc(-c3ccc(F)c(F)c3)cc2F)[C@@H]2C=CS(=O)(=O)C2)ccn1` [I-38, (R)—N-(1,1-dioxido-2,3-dihydrothiophen-3-yl)-2,2-difluoro-N-((2-(2-hydroxypropan-2-yl)pyridin-4-yl)methyl)-2-(3,3′,4′-trifluoro-[1,1′-biphenyl]-4-yl)acetamide]: below 0.5 µM; `O=C(Cc1ccc(-n2cccc2)cc1)N(Cc1ccccc1)C1C=CS(=O)(=O)C1` (stereo not drawn) [I-290, N-benzyl-N-(1,1-dioxo-2,3-dihydro-1lambda6-thiophen-3-yl)-2-[4-(1H-pyrrol-1-yl)phenyl]acetamide]: 5 to 10 µM; `COc1ccccc1CN(C(=O)Cc1ccc(-n2cccc2)cc1)C1C=CS(=O)(=O)C1` (stereo not drawn) [I-524, N-(1,1-dioxo-2,3-dihydro-1lambda6-thiophen-3-yl)-N-[(2-methoxyphenyl)methyl]-2-[4-(1H-pyrrol-1-yl)phenyl]acetamide]: above 50 µM. As for `COc1cc(CN(C(=O)C(c2ccc(-c3ccc(F)c(F)c3)cc2F)n2cc(C(F)F)cn2)[C@@H]2C=CS(=O)(=O)C2)ccn1` (single isomer, unassigned) [I-701, (2R*)-2-[4-(difluoromethyl)-1H-pyrazol-1-yl]-N-[(3R)-1,1-dioxo-2,3-dihydro-1lambda6-thiophen-3-yl]-N-[(2-methoxypyridin-4-yl)methyl]-2-{3,3′,4′-trifluoro-[1,1′-biphenyl]-4-yl}acetamide], the IC50 is below 0.5 µM.

For the origin of these results see US20260297070A1, “CYCLIC [COMPOUND LEFT OUT] WRN INHIBITORS” (Nimbus Wadjet, Inc., priority 2023, published 2026).
